The subject of the first test is PBMC sub-populations. The experiment in a line: HT-qPCR IFN-γ screen of PBMC sub-populations contacted with candidate mesothelin peptides. The format is cell-based, human. As to conditions: highest IFN-γ mRNA stimulation index of PBMC sub-populations contacted with the peptide and IL-2; SI <2 = not reactive. The method, then:
PBMCs obtained by leukapheresis from HLA-A2+ metastatic melanoma patients are used to establish 96 independent subpopulations cultured in complete medium (CM) consisting of RPMI 1640 supplemented with 10% heat-inactivated fetal bovine serum, 2 mM L-glutamine (Invitrogen, Carlsbad, Calif.), 50 units/mL penicillin (Invitrogen), 50 μg/mL streptomycin (Invitrogen), 50 μg/mL gentamicin (Invitrogen), 10 mM Hepes (Invitrogen), and 250 ng/mL Amphotericin B (Invitrogen), along with 10% heat-inactivated human AB serum (Gemini Bio-Products, Woodland, Calif.). […] The SI reactivities for the 96 wells are stratified by their magnitude and the most reactive subpopulations are selected for limiting dilution cloning.
Mesothelin peptides of the following amino acid sequence are synthesized as essentially described in Example 1: […] (SEQ ID NO: 12), […] (SEQ ID NO: 11), […] (SEQ ID NO: 13), […] (SEQ ID NO: 14), […] (SEQ ID NO: 15), […] (SEQ ID NO: 16), […] (SEQ ID NO: 17), […] (SEQ ID NO: 18), […] (SEQ ID NO: 19), and […] (SEQ ID NO: 20). The peptides are used to contact PBMC sub-populations along with IL-2 in accordance with the procedures described in Example 4. HT-qPCR is performed on a sample of each sub-population to determine the expression of IFN-γ by the contacted PBMC sub-populations.
Background: In qPCR the cycle at which signal appears reflects the starting amount.
Regarding LLATQMDRV, the “Highest SI (Day 14)” value is listed as below 2.

As for SLLFLLFSL, the “Highest SI (Day 14)” value is given as 119.

In the case of RLSEPPEDL, the “Highest SI (Day 14)” value was below 2.

Regarding NMNGSEYFV, the “Highest SI (Day 14)” value was “*<2”. For LLGFPCAEV, the “Highest SI (Day 14)” value is reported as below 2.

VLLPRLVSC: the “Highest SI (Day 14)” value is listed as below 2. Still for that read-out and setting: in the case of LIFYKKWEL it was below 2; in that of VLPLTVAEV, below 2; in that of FLLFSLGWV, 29. On the same count and under the same terms, the figure for LPLDLLLFL is below 2.

The test system of the next test is PBMC from HLA-A2+ metastatic melanoma patients.
Experiment: not given
Conditions: not given
For the compound `CC[C@H](C)[C@H](N)C(=O)N[C@H](C(=O)N[C@@H](CC(=O)O)C(=O)N[C@@H](CCC(N)=O)C(=O)N[C@H](C(=O)N1CCC[C@H]1C(=O)N[C@@H](Cc1ccccc1)C(=O)N[C@@H](CO)C(=O)N[C@H](C(=O)O)C(C)C)C(C)C)[C@@H](C)O` [gp100209-217], the “number of patients with at least one microculture with significant peptide reactivity (SI >2)” value was 16 patients.

Still in this test, the particulars now being: 17 HLA-A2+ melanoma patients (8 for gp100154-162); 1 μM peptide, 6 days, IL-2 90 IU/ml.
For the compound `CC[C@H](C)[C@H](N)C(=O)N[C@H](C(=O)N[C@@H](CC(=O)O)C(=O)N[C@@H](CCC(N)=O)C(=O)N[C@H](C(=O)N1CCC[C@H]1C(=O)N[C@@H](Cc1ccccc1)C(=O)N[C@@H](CO)C(=O)N[C@H](C(=O)O)C(C)C)C(C)C)[C@@H](C)O` [gp100209-217], the “percent of patients with individual wells with peptide reactivity above background” value is recorded as 94%.

The values are drawn from patent US8759014B2, “Methods of obtaining antigen-specific T cell populations” (The United States of America, as represented by the …, priority 2008, dated 2014).
